Results: patent publication US12128028B2, “Heterocyclic sulfonamide derivatives and pharmaceutical uses thereof” (METRION BIOSCIENCES LIMITED, priority 2018, dated 2024)

The compounds below were run against human Kv1.3 (Homo sapiens (Human), UniProt P22001) (assay: Kv1.3 potency evaluation, automated patch clamp electrophysiology (QPatch HT) in CHO-Kv1.3 cells). Conditions: whole-cell QPatch HT, % inhibition of charge, step to +30 mV, four concentrations, N≥3 cells, read-out: hKv1.3 IC50.
Type: cell-based
In short: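 Automated whole-cell patch clamp in CHO cells stably expressing human Kv1.3; steps from −80 to +30 mV (500 ms) at 0.067 Hz. Four cumulative concentrations after vehicle (0.1-0.3% DMSO); charge inhibition vs vehicle fitted by four-parameter logistic for IC50, N≥3 cells.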

human Kv1.3, sequence (P22001 whole entry): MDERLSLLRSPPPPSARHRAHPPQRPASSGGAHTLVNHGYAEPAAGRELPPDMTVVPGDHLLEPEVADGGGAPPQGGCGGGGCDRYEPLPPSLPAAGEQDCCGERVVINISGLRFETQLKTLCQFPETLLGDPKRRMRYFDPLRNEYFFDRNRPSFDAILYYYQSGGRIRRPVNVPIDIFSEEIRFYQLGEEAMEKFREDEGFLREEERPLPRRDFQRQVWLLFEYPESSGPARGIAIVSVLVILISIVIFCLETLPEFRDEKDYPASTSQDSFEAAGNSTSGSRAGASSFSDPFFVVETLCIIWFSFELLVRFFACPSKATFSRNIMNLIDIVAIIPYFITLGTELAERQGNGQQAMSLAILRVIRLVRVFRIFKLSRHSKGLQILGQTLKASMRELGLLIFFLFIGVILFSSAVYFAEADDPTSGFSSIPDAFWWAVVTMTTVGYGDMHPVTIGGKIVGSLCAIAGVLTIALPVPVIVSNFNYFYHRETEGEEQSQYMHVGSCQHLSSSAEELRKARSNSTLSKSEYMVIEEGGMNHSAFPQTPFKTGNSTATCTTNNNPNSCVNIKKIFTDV

Point of comparison: `CC1(C)N=C(C23CC(N(Cc4ccc(Cl)c(Cl)c4)S(=O)(=O)CCC(F)F)(C2)C3)N[C@H]1C(=O)NCC(F)(F)C(F)(F)F` (mixture of isomers) [Example 210], IC50 0.144 µM. Against it:
- CC(F)(F)CCS(=O)(=O)N(Cc1ccc(Cl)c(Cl)c1)C12CC(C3=NC(C)(C)[C@H](C(=O)N4CCC(F)(F)CC4)N3)(C1)C2 (mixture of isomers) [Example 176] — within 1.5-fold, 0.104 µM
- CC1(C)N=C(C23CC(N(Cc4ccc(Cl)c(Cl)c4)S(=O)(=O)CCC(F)F)(C2)C3)N[C@H]1C(=O)NC1CC(C(F)F)C1 (mixture of isomers) [Example 177] — within 1.5-fold, 0.104 µM
- CC1(C)N=C(C23CC(N(Cc4ccc(Cl)c(F)c4)S(=O)(=O)c4ccccc4)(C2)C3)N[C@H]1C(=O)N1CCC[C@@H](C(F)(F)F)C1 (mixture of isomers) [Example 178] — within 1.5-fold, 0.105 µM
- CC1(C)N=C(C23CC(N(Cc4ccc(Cl)c(Cl)c4)S(=O)(=O)CCC(F)F)(C2)C3)N[C@H]1C(=O)NC[C@H]1CC1(F)F (mixture of isomers) [Example 179] — within 1.5-fold, 0.105 µM
- CC1(C)N=C(C23CC(N(Cc4ccc(Cl)cc4)S(=O)(=O)c4ccccc4O)(C2)C3)N[C@H]1C(=O)NCCC(F)(F)F (mixture of isomers) [Example 180] — within 1.5-fold, 0.106 µM
- CN(CC(F)(F)C(F)(F)F)C(=O)[C@@H]1NC(C23CC(N(Cc4ccc(Cl)c(F)c4)S(=O)(=O)c4ccccc4)(C2)C3)=NC1(C)C (mixture of isomers) [Example 181] — within 1.5-fold, 0.106 µM
- CN(C[C@H]1CC1(F)F)C(=O)[C@@H]1NC(C23CC(N(Cc4ccc(Cl)c(Cl)c4)S(=O)(=O)CCC(F)F)(C2)C3)=NC1(C)C (mixture of isomers) [Example 183] — within 1.5-fold, 0.108 µM
- CC1N=C(C23CC(N(Cc4ccc(C(F)(F)F)cc4)S(=O)(=O)c4ccc(F)cc4)(C2)C3)N[C@@]1(C)C(=O)NCC1CCC1 (mixture of isomers) [Example 184] — within 1.5-fold, 0.109 µM
- CC1(C)N=C(C23CC(N(Cc4ccc(Cl)c(F)c4)S(=O)(=O)c4ccccc4)(C2)C3)N[C@H]1C(=O)N1CCCC1 (mixture of isomers) [Example 185] — within 1.5-fold, 0.109 µM
- CCCS(=O)(=O)N(Cc1ccc(Cl)c(Cl)c1)C12CC(C3=NC(C)(C)[C@H](C(=O)N4CC5CCC(C4)C5(F)F)N3)(C1)C2 (mixture of isomers) [Example 187] — within 1.5-fold, 0.11 µM
- CC1(C)N=C(C23CC(N(Cc4ccc(Cl)c(F)c4)S(=O)(=O)c4ccccc4)(C2)C3)N[C@H]1C(=O)N1CCC(C(F)(F)F)CC1 (mixture of isomers) [Example 188] — within 1.5-fold, 0.112 µM
- CC1(C)N=C(C23CC(N(Cc4ccc(Cl)c(Cl)c4)S(=O)(=O)c4ccccc4)(C2)C3)N[C@H]1C(=O)NC1CC1C(F)(F)F (mixture of isomers) [Example 189] — within 1.5-fold, 0.112 µM
- CCCS(=O)(=O)N(Cc1ccc(Cl)c(Cl)c1)C12CC(C3=NC(C)(C)[C@H](C(=O)N4C5CCC4CC(F)(F)C5)N3)(C1)C2 (mixture of isomers) [Example 190] — within 1.5-fold, 0.113 µM
- CC1(C)N=C(C23CC(N(Cc4ccc(Cl)cc4)S(=O)(=O)c4ccccc4[N+](=O)[O-])(C2)C3)N[C@H]1C(=O)NCCC(F)(F)F (mixture of isomers) [Example 191] — within 1.5-fold, 0.114 µM
- CC1(C)N=C(C23CC(N(Cc4ccc(Cl)c(Cl)c4)S(=O)(=O)CCC(F)F)(C2)C3)N[C@H]1C(=O)N1CCC(F)(F)CC1 (mixture of isomers) [Example 194] — within 1.5-fold, 0.121 µM
- CC1(C)N=C(C23CC(N(Cc4ccc(Cl)c(Cl)c4)S(=O)(=O)c4ccccc4)(C2)C3)N[C@H]1C(=O)N1CC2(C1)CC(F)(F)C2 (mixture of isomers) [Example 195] — within 1.5-fold, 0.124 µM
- CC(C)NC(=O)[C@]1(C)CN=C(C23CC(N(Cc4ccc(C(F)(F)F)cc4)S(=O)(=O)c4ccc(F)cc4)(C2)C3)N1 (mixture of isomers) [Example 196] — within 1.5-fold, 0.125 µM
- CC1(C)N=C(C23CC(N(Cc4ccc(C(F)(F)F)c(F)c4)S(=O)(=O)c4ccccc4)(C2)C3)N[C@H]1C(=O)NCCC(F)(F)F (mixture of isomers) [Example 197] — within 1.5-fold, 0.126 µM
- CC1(C)N=C(C23CC(N(Cc4ccc(Cl)c(F)c4)S(=O)(=O)c4ccccc4)(C2)C3)N[C@H]1C(=O)N1CC2(C1)CC(F)(F)C2 (mixture of isomers) [Example 198] — within 1.5-fold, 0.126 µM
- C[C@]1(C(=O)NC2CCC2)CN=C(C23CC(N(Cc4ccc(C(F)(F)F)cc4)S(=O)(=O)c4ccc(F)cc4)(C2)C3)N1 (mixture of isomers) [Example 199] — within 1.5-fold, 0.129 µM
- CC1(C)N=C(C23CC(N(Cc4ccc(Cl)c(F)c4)S(=O)(=O)c4ccccc4)(C2)C3)N[C@H]1C(=O)N1CCC(F)(F)C(C)(C)C1 (mixture of isomers) [Example 200] — within 1.5-fold, 0.129 µM
- CC1(C)N=C(C23CC(N(Cc4ccc(Cl)cc4)S(=O)(=O)CCC(F)(F)F)(C2)C3)N[C@H]1C(=O)NCCC(F)(F)F (mixture of isomers) [Example 201] — within 1.5-fold, 0.131 µM
- C[C@]1(C(=O)NCCC(F)(F)F)CN=C(C23CC(N(Cc4ccc(C(F)(F)F)cc4)S(=O)(=O)c4ccc(F)cc4)(C2)C3)N1 (mixture of isomers) [Example 202] — within 1.5-fold, 0.134 µM
- CC(C)(C)CNC(=O)[C@@H]1NC(C23CC(N(Cc4ccc(Cl)c(Cl)c4)S(=O)(=O)CCC(C)(F)F)(C2)C3)=NC1(C)C (mixture of isomers) [Example 203] — within 1.5-fold, 0.134 µM
- CC1(C)N=C(C23CC(N(Cc4ccc(Cl)c(Cl)c4)S(=O)(=O)CCC(F)F)(C2)C3)N[C@H]1C(=O)NC1CC(C(F)F)C1 (mixture of isomers) [Example 204] — within 1.5-fold, 0.135 µM
- CC1(C)N=C(C23CC(N(Cc4ccc(Cl)c(Cl)c4)S(=O)(=O)CCC(F)F)(C2)C3)N[C@H]1C(=O)NCC1CC(F)(F)C1 (mixture of isomers) [Example 205] — within 1.5-fold, 0.136 µM
- CC1(C)N=C(C23CC(N(Cc4ccc(Cl)cc4)S(=O)(=O)CCCC(F)(F)F)(C2)C3)N[C@H]1C(=O)NCCC(F)(F)F (mixture of isomers) [Example 206] — within 1.5-fold, 0.137 µM
- CN(CCC(F)(F)F)C(=O)[C@@H]1NC(C23CC(N(Cc4ccc(Cl)c(Cl)c4)S(=O)(=O)CCC(F)F)(C2)C3)=NC1(C)C (mixture of isomers) [Example 207] — within 1.5-fold, 0.137 µM
- O=C(NCC1CCC1)[C@H]1CN=C(C23CC(N(Cc4ccc(C(F)(F)F)cc4)S(=O)(=O)c4ccc(F)cc4)(C2)C3)N1 (mixture of isomers) [Example 209] — the same, 0.144 µM
- CC1N=C(C23CC(N(Cc4ccc(C(F)(F)F)cc4)S(=O)(=O)c4ccc(F)cc4)(C2)C3)N[C@@]1(C)C(=O)NCCC(F)(F)F (mixture of isomers) [Example 211] — within 1.5-fold, 0.148 µM
- CC1(C)N=C(C23CC(N(Cc4ccc(Cl)cc4)S(=O)(=O)N4CCC(F)(F)C4)(C2)C3)N[C@H]1C(=O)NCCC(F)(F)F (mixture of isomers) [Example 212] — within 1.5-fold, 0.149 µM
- CC(C)NC(=O)[C@@]1(C)CN=C(C23CC(N(Cc4ccc(C(F)(F)F)cc4)S(=O)(=O)c4ccc(F)cc4)(C2)C3)N1C (mixture of isomers) [Example 213] — within 1.5-fold, 0.152 µM
- C[C@]1(C(=O)NCC2CCC2)CN=C(C23CC(N(Cc4ccc(C(F)(F)F)cc4)S(=O)(=O)c4ccc(F)cc4)(C2)C3)N1 (mixture of isomers) [Example 214] — within 1.5-fold, 0.159 µM
- CN(CC(F)(F)C(F)(F)F)C(=O)[C@@H]1NC(C23CC(N(Cc4ccc(Cl)c(Cl)c4)S(=O)(=O)c4ccccc4)(C2)C3)=NC1(C)C (mixture of isomers) [Example 215] — within 1.5-fold, 0.159 µM
- CCCS(=O)(=O)N(Cc1ccc(Cl)c(Cl)c1)C12CC(C3=NC(C)(C)[C@H](C(=O)NCCCC(F)(F)F)N3)(C1)C2 (mixture of isomers) [Example 216] — within 1.5-fold, 0.163 µM
- CC1(C)N=C(C23CC(N(Cc4ccc(C(F)(F)F)cc4)S(=O)(=O)c4ccc(F)cc4)(C2)C3)N[C@H]1C(=O)NCCC(F)(F)F (mixture of isomers) [Example 217] — within 1.5-fold, 0.167 µM
- C[C@]1(C(=O)NCC2CC2)CN=C(C23CC(N(Cc4ccc(C(F)(F)F)cc4)S(=O)(=O)c4ccc(F)cc4)(C2)C3)N1 (mixture of isomers) [Example 218] — within 1.5-fold, 0.168 µM
- Cc1ccccc1S(=O)(=O)N(Cc1ccc(Cl)cc1)C12CC(C3=NC(C)(C)[C@H](C(=O)NCCC(F)(F)F)N3)(C1)C2 (mixture of isomers) [Example 219] — within 1.5-fold, 0.168 µM
- CC1(C)N=C(C23CC(N(Cc4ccc(C(F)(F)F)c(Cl)c4)S(=O)(=O)c4ccccc4)(C2)C3)N[C@H]1C(=O)NCCC(F)(F)F (mixture of isomers) [Example 221] — within 1.5-fold, 0.169 µM
- CC(F)(F)CCS(=O)(=O)N(Cc1ccc(Cl)c(F)c1)C12CC(C3=NC(C)(C)[C@H](C(=O)NCC(F)(F)C(F)(F)F)N3)(C1)C2 (mixture of isomers) [Example 222] — within 1.5-fold, 0.17 µM
- CC1(C)N=C(C23CC(N(Cc4ccc(Cl)c(C#N)c4)S(=O)(=O)c4ccccc4)(C2)C3)N[C@H]1C(=O)NCCC(F)(F)F (mixture of isomers) [Example 223] — within 1.5-fold, 0.177 µM
- CC1(C)N=C(C23CC(N(Cc4ccc(Cl)c(F)c4)S(=O)(=O)c4ccccc4O)(C2)C3)N[C@H]1C(=O)NCCC(F)(F)F (mixture of isomers) [Example 225] — within 1.5-fold, 0.182 µM
- CC1(C)N=C(C23CC(N(Cc4ccc(Cl)c(Cl)c4)S(=O)(=O)c4ccccc4O)(C2)C3)N[C@H]1C(=O)NCCC(F)(F)F (mixture of isomers) [Example 226] — within 1.5-fold, 0.185 µM
- C[C@]1(C(=O)NCC2CC(F)(F)C2)CN=C(C23CC(N(Cc4ccc(C(F)(F)F)cc4)S(=O)(=O)c4ccc(F)cc4)(C2)C3)N1 (mixture of isomers) [Example 227] — within 1.5-fold, 0.186 µM
- CC1(NC(=O)[C@@]2(C)CN=C(C34CC(N(Cc5ccc(C(F)(F)F)cc5)S(=O)(=O)c5ccc(F)cc5)(C3)C4)N2)CCC1 (mixture of isomers) [Example 228] — within 1.5-fold, 0.19 µM
- CN(C)C(=O)[C@]1(C)CN=C(C23CC(N(Cc4ccc(C(F)(F)F)cc4)S(=O)(=O)c4ccc(F)cc4)(C2)C3)N1 (mixture of isomers) [Example 230] — within 1.5-fold, 0.201 µM
- CC1(C)N=C(C23CC(N(Cc4ccc(Cl)cc4)S(=O)(=O)CC4CC(F)(F)C4)(C2)C3)N[C@H]1C(=O)NCCC(F)(F)F (mixture of isomers) [Example 231] — within 1.5-fold, 0.205 µM
